Measured values taken from article PMC9643419 (Nature Communications, 2022).

Experiments:
TEAD1 = TEAD1 (Homo sapiens, UniProt P28347); test: cell-based TEAD1 palmitoylation (alkyne palmitic acid labelling, HEK293A)
TEAD4 = TEAD4 (Homo sapiens, UniProt Q15561); test: TEAD4 biochemical palmitoylation assay
TEAD2 = TEAD2 (Homo sapiens, UniProt Q15562); test: in vitro autopalmitoylation of recombinant TEAD2 with alkyne palmitoyl-CoA, click/streptavidin blot; type: biochemical
Chain of TEAD2 (Q15562 217-447): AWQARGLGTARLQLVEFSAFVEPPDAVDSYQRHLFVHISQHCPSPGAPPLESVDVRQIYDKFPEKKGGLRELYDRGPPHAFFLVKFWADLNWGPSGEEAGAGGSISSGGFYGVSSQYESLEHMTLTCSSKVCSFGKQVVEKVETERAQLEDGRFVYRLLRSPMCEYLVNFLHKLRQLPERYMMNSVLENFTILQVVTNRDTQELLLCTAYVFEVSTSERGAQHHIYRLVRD

Chain of TEAD1 (P28347 whole entry): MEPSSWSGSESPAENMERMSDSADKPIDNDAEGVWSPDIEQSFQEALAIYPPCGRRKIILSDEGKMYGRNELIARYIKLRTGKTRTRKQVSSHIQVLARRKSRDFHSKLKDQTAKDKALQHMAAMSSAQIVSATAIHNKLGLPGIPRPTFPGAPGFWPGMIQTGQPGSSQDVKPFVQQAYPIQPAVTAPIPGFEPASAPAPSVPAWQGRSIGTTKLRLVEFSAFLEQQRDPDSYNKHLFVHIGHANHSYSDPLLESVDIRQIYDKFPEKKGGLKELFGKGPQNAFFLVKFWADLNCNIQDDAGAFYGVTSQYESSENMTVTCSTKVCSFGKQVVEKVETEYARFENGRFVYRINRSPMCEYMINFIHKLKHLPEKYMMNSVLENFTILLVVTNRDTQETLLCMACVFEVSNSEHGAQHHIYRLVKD
Chain of TEAD4 (Q15561 whole entry): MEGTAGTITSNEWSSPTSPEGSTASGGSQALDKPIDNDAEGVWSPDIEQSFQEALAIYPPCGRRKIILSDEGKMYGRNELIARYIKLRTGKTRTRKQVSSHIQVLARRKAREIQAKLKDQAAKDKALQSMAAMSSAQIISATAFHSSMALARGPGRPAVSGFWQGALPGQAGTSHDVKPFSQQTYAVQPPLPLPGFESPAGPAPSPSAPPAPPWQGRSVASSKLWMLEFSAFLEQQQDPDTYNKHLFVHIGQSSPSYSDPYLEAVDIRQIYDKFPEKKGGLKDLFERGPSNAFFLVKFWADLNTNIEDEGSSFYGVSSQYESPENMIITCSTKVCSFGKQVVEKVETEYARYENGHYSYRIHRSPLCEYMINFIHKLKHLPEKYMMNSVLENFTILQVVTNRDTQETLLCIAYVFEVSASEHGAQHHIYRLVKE

Compound	cell-based TEAD1 palmitoylation (alkyne palmitic acid labelling, HEK293A) (TEAD1)	IC50 (TEAD4) [µM]	IC50 (TEAD2) [µM]
O=C(CSc1nnc[nH]1)Nc1ccc(C23CC4CC(CC(C4)C2)C3)cc1 [MGH-CP1, 2-((4H−1,2,4-triazol-3-yl)thio)-N-(4-((1 S,3 R,5 S)-adamantan-1-yl)phenyl)acetamide]	MGH-CP12 inhibits TEAD1 palmitoylation in cells more potently than MGH-CP1 (Fig. 1d)		
O=C(CSc1nnc[nH]1)Nc1ccc(C23CC4CC(CC(C4)C2)C3)cc1Br [MGH-CP12, 2-((4H−1,2,4-triazol-3-yl)thio)-N-(4-((1 S,3 R,5 S)-adamantan-1-yl)−2-bromophenyl)acetamide]	MGH-CP12 inhibits TEAD1 palmitoylation in cells more potently than MGH-CP1 (Fig. 1d)	0.852	0.106
O=C(CSc1nncs1)Nc1ccc(C23CC4CC(CC(C4)C2)C3)cc1 [MGH-CP28, 2-((1,3,4-thiadiazol-2-yl)thio)-N-(4-((1 S,3 R,5 S)-adamantan-1-yl)phenyl)acetamide]			0.617
